Test results reported in patent publication US12240844B2 (Voronoi, Inc., priority 2019, dated 2025).

Legend:
[1] = molecular target: T1, human GST-DYRK1A (full length) (Homo sapiens, UniProt Q13627); test: GST-DYRK1A enzyme inhibition, ADP-Glo kinase assay; format: biochemical; settings: read-out: DYRK1 IC50
T1 construct: purified human GST-DYRK1A (full length, Thermo scientifics) enzyme; GST; purchased Thermo scientifics
Method in brief: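 ADP-Glo luminescence quantified kinase activity after a 1 h, 25° C reaction of 10 ng full-length GST-tagged human DYRK1A, substrate and 10 uM ATP in Tris-HCl buffer pH 7.4 with MgCl2, BSA and DTT. Triplicate IC50 values (nM) calculated relative to untreated solvent control.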

[2] = molecular target: T2, human GST-CLK1 (129-end) (Homo sapiens, UniProt P49759); test: GST-CLK1 enzyme inhibition, ADP-Glo kinase assay; format: biochemical; settings: ATP 10 uM
T2 construct: purified human GST-CLK1 (129-end, Signalchem) enzyme; GST; purchased Signalchem
T2 sequence (P49759 129-484 limits assumed): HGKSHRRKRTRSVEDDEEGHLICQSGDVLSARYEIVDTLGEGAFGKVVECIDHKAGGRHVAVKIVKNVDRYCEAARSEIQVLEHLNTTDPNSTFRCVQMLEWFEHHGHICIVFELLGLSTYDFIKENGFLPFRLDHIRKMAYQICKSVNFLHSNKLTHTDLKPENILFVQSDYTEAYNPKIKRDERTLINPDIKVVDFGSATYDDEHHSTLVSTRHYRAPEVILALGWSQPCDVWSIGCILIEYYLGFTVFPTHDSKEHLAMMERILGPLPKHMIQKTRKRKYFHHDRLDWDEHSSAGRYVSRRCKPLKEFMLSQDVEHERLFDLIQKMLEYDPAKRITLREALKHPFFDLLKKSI
Method in brief: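 ADP formation was read by ADP-Glo luminescence after 1 h at 25° C with 3 ng human GST-CLK1 (129-end), substrate and 10 uM ATP in Tris pH 7.4 buffer containing MgCl2, BSA and DTT. Inhibition relative to untreated solvent control gave IC50 (nM), run in triplicate.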

[3] = system: MDA-MB-468 cell line; test: MDA-MB-468 cancer cell proliferation inhibition (Cell Titer-Glo); format: cell-based; settings: Homo sapiens, MDA-MB-468 triple-negative breast cancer cell line, 72 hours
Procedure: In order to evaluate the cancer cell proliferation inhibitory activity of the compounds of the present invention, the following experiments were performed.
To evaluate the cancer cell proliferation inhibitory effect, the cell growth rate analysis was performed while culturing MDA-MB-231 cell line (Korean Cell Line Bank #30026) and MDA-MB-468 cell line as the triple-negative breast cancer cell line, and SHP-77 (ATCC #CRL-2195) as the small cell lung cancer cell line in DMEM (HyClone #SH30243) and RPMI medium (HyClone #SH3027.01), respectively. More specifically, the cell lines were each plated at 2000 cells/100 μl in each well of a 96-well flat-bottom plate (coming #3903), and then the example compounds having eleven concentrations which were diluted by ⅓ so that the final concentrations were 10.000000, 3.333333, 1.111111, 0.370370, 0.123457, 0.041152, 0.013717, 0.004572, 0.001524, 0.000508 and 0.000169 μM were treated. After 72 hours, 100 μl of Cell Titer-Glo (Promega G7573) was treated, incubated at RT for 10 minutes, and then luminescence was measured using a microplate reader. The measured luminescence degree was calculated as GI50 using Prism (version 8.2 GraphPad) software.
In the table below, the following designations were used for the evaluation of proliferation inhibitory activity.

[4] = system: MDA-MB-231 cell line; test: MDA-MB-231 cancer cell proliferation inhibition (Cell Titer-Glo); format: cell-based; settings: Homo sapiens, MDA-MB-231 triple-negative breast cancer cell line, 72 hours
Method in brief: (§1)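 GI50 comes from CellTiter-Glo luminescence, read 10 min after reagent addition at RT, following 72 h compound treatment. Eleven concentrations were used (⅓ steps, highest 10 μM final) on 2000 cells/well. MDA-MB-231 and MDA-MB-468 were grown in DMEM, SHP-77 in RPMI.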

[5] = system: SHP-77; test: SHP-77 cancer cell proliferation inhibition (Cell Titer-Glo); format: cell-based; settings: Homo sapiens, SHP77, SHP-77 small cell lung cancer cell line, 72 hours
Method in brief: as §1

[6] = system: IL-6; test: IL-6 secretion inhibition in LPS-treated THP-1 cells (ELISA); format: cell-based; settings: Homo sapiens, compound 0.5 μM, LPS 500 ng/ml, 24 hours, read-out: THP1/IL6 (% inhib)
Procedure: (§2) In order to evaluate the cytokine secretion inhibitory efficacy of mononuclear cells, THP-1 cells (ATCC, #TIB-202) as a human-derived monocyte cell line were cultured in RPMI-1640 (Hyclone, SH30027.01) media in which 10% fetal bovine serum (Hyclone, SH30084.03), 1% penicillin streptomycin (Welgene, LS202-02) and 50 μM 2-Mercaptoethanol (Gibco, #21985023) were contained. In the test, 1.5-2×10^5 cells/250 μl per each well were dispensed in a 48-well plate (SPL, #30048) and incubated in an incubator at 37° C. and 5% CO2 for 16 hours, and then the compounds were diluted in DMSO so that the final concentration was 0.5 μM. It was treated with Lipopolysaccharides (LPS) (sigma, #L6529) […]. After treatment with the compound, the LPS was treated so that the final concentration was 500 ng/ml, and then the cell culture fluid was collected after culturing for 24 hours, and the degrees of the cytokines IL-6 (R&D system, #D6050) and TNF-α (R&D system, #DTA00D) contained in the culture fluid were collected using each ELISA kit. After performing the experiment according to the manufacturer's instructions, the absorbance at 450 nm was measured and analyzed using a microplate reader.

[7] = system: TNF-α; test: TNF-α secretion inhibition in LPS-treated THP-1 cells (ELISA); format: cell-based; settings: Homo sapiens, compound 0.5 μM, LPS 500 ng/ml, 24 hours, read-out: THP-1/TNF-a (% inhib)
Procedure: as §2

[8] = system: THP-1; test: THP-1 GI50 (Table 4, method not given); format: cell-based; settings: Homo sapiens; THP-1 cells
[9] = molecular target: LRRK2 (Homo sapiens, UniProt Q5S007); test: LRRK2 enzyme inhibition, ADP-Glo kinase assay; format: biochemical; design: purchased Invitrogen PR8604B
LRRK2, sequence (Q5S007 970-2527 limits assumed): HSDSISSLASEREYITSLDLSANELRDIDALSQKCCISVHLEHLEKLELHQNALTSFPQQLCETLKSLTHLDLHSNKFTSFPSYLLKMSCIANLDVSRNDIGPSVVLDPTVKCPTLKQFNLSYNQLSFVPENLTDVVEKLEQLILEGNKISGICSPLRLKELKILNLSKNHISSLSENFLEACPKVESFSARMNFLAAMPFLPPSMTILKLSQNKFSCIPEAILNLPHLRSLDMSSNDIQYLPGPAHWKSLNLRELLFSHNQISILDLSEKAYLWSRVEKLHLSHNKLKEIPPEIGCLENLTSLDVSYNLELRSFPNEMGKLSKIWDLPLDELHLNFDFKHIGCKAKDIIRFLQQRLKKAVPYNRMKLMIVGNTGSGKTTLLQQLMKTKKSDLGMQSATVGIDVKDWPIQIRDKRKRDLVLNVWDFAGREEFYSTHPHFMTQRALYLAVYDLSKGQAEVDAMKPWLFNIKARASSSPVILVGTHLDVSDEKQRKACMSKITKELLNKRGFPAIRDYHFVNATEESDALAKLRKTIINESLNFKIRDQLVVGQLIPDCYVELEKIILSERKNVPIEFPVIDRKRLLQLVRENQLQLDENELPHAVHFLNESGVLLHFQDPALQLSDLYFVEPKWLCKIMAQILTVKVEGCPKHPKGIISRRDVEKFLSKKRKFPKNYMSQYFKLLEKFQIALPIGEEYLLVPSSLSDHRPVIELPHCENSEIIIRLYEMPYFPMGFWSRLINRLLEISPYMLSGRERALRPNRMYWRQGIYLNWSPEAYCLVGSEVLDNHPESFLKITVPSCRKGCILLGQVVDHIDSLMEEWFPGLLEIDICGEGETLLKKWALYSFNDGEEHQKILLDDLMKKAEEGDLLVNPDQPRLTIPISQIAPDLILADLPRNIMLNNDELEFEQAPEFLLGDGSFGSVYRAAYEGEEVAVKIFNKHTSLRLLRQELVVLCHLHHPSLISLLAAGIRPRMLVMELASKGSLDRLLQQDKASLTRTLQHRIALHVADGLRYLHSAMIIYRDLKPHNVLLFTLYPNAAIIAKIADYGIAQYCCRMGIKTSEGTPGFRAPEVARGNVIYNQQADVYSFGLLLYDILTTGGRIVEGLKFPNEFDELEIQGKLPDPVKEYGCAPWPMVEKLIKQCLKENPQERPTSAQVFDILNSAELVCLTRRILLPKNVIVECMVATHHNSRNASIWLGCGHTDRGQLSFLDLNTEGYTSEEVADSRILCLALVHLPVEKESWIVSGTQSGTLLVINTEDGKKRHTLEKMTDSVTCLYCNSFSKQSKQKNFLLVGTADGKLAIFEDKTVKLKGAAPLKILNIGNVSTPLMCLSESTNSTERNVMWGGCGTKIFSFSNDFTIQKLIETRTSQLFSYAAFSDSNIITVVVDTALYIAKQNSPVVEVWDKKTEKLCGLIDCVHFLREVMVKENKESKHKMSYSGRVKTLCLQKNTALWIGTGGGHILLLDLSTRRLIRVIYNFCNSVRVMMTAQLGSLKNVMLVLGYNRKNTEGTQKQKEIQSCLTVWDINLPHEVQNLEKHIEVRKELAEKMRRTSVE
Method in brief: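 ADP-Glo luminescence read after 2 h at 25° C, 10 μM ATP, 25 ng purified human LRRK2 and […] substrate in Tris-HCl pH7.4 buffer with MgCl2, BSA, DTT. Twelve final concentrations, 50 μM down to 0.000001024 μM; IC50 (nM) from inhibition relative to untreated solvent control.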

[10] = molecular target: LRRK2 (G2019S) (Homo sapiens, UniProt Q5S007, G2019S); test: LRRK2 G2019S enzyme inhibition, ADP-Glo kinase assay; format: biochemical; design: purchased SignalChem L10-12GG
LRRK2 (G2019S), sequence (Q5S007 970-2527 G2019S limits assumed): as the sequence (Q5S007 970-2527 limits assumed) above, with G1050S counted along it
Method in brief: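 Activity read as ADP-Glo luminescence, normalized to untreated solvent control, with IC50 (nM) fitted over 12 final compound levels (top 50 μM). Reaction: 2 h, 25° C, human LRRK2 G2019S 16 ng, ATP 25 μM, substrate 0.2 μg, in Tris-HCl pH 7.4 with MgCl2, BSA and DTT.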

Row | Compound | IC50 [1] | IC50 [2] | GI50 [3] | GI50 [4] | GI50 [5] | inhibition at 0.5 µM [6] | inhibition at 0.5 µM [7] | GI50 [8] | IC50 [9] | IC50 [10]
1 | COc1cc(S(=O)(=O)N2CCC(N3CCOCC3)CC2)ccc1Nc1cc(NC2CCCCC2)c2c(C#N)c[nH]c2n1 [Example 151, N^4-(cyclohexylamino)-N^6-((2-methoxy-4-((4-morpholinopiperidin-1-yl)sulfonyl)phenyl)amino)-1H-pyrrolo[2,3-b]pyridine-3-carbonitrile] | 301 to 1000 nM | 301 to 1000 nM | 101 to 300 nM | 51 to 100 nM | 51 to 100 nM |  |  |  |  | 
2 | CCNc1cc(Nc2ccc(C(=O)N3CCOCC3)c3c2OCCO3)nc2[nH]cc(C(F)(F)F)c12 [Example 153, (8-((4-(ethylamino)-3-(trifluoromethyl)-1H-pyrrolo[2,3-b]pyridin-6-yl)amino)-2,3-dihydrobenzo[b] [1,4]dioxin-5-yl)(morpholino) methanone] | < 100 nM | < 100 nM |  |  |  | 32.7% | 40.4% | 14400 nM | < 100 nM | 101 to 300 nM
3 | CNc1cc(Nc2ccc(C(=O)N3CCOCC3)c3c2OCCO3)nc2[nH]cc(C(F)(F)F)c12 [Example 152, (8-((4-(methylamino)-3-(trifluoromethyl)-1H-pyrrolo[2,3-b]pyridin-6-yl)amino)-2,3-dihydrobenzo [b] [1,4]dioxin-5-yl)(morpholino) methanone] | < 100 nM | < 100 nM | 101 to 300 nM |  |  |  |  |  | < 100 nM | < 100 nM
4 | N#Cc1c[nH]c2nc(Nc3ccc(C(=O)N4CCC(N5CCOCC5)CC4)c4c3OCCO4)cc(NC3CCCCC3)c12 [Example 149, 4-(cyclohexylamino)-6-((8-(4-morpholinopiperidine-1-carbonyl)-2,3-dihydrobenzo [b] [1,4]dioxin-5-yl)amino)-1H-pyrrolo[2,3-b]pyridine-3-carbonitrile] | 301 to 1000 nM | 301 to 1000 nM | 101 to 300 nM |  |  |  |  |  |  | 
5 | N#Cc1c[nH]c2nc(Nc3ccc(C(=O)N4CCOCC4)c4c3OCCO4)cc(NC3CCCCC3)c12 [Example 150, N^4-(cyclohexylamino)-N^6-((8-(morpholine-4-carbonyl)-2,3-dihydrobenzo [b] [1,4]dioxin-5-yl)amino)-1H-pyrrolo[2,3-b]pyridine-3-carbonitrile] | 301 to 1000 nM | 301 to 1000 nM | 51 to 100 nM |  |  |  |  |  |  | 
6 | N#Cc1c[nH]c2nc(Nc3ccc(C(=O)N4CCOCC4)c4c3OCCO4)cc(NC3CCCC3)c12 [Example 112, 4-(cyclopentylamino)-6-((8-(morpholine-4-carbonyl)-2,3-dihydrobenzo[b] [1,4]dioxin-5-yl)amino)-1H-pyrrolo[2,3-b]pyridine-3-carbonitrile] | 301 to 1000 nM | 301 to 1000 nM | 51 to 100 nM |  |  |  |  |  | < 100 nM | < 100 nM
